# Test results taken from US12058996B2, “High subzero cryopreservation” (The General Hospital Corporation, priority 2017, dated 2024).
# Tests used:
# [1] = test system: Human Umbilical Vein Endothelial Cells (HUVEC); assay: Endothelial cell attachment with CPAs without freezing (FIG. 9); assay type: cell-based; conditions: 100 mM 3-OMG, p=0.6995
# Description: Prior to coating with endothelial cells, microchannels were sonicated briefly (3 min in isopropanol; Branson 200, Branson Ultrasonics), and then rinsed with PBS. Channels were then coated with 1 mg/mL fibronectin (dissolved in sterile PBS, total of 10 μl) and incubated for 60 min at 37° C. After a priming step, HUVEC cells were trypsinized, counted, and re-suspended in EBM-2 complete media (˜10.0×10^6 cells per mL). Cells were subsequently introduced to the cell seeding port and incubated at 37° C. 5% CO2 for 30 min (FIG. 1A). Final constriction diameters of cellularized microchannels varied from ˜10 to 20 μm across the lengths of individual channels due to the presence of cellular nuclei along channel walls. […]
# Cell attachment values were quantified by counting the total number of Hoechst positive cells (i.e. total number of cell nuclei) and dividing by the total number of channels (each device has maximum of 16 channels). Membrane integrity was quantified by counting the number of propidium iodide positive cells divided by the total number of Hoechst positive cells. Cell attachment and membrane integrity are expressed as box-and-whiskers plots showing median, interquartile range, maxima, and minima (n=4-8). […]
# [2] = test system: Human Umbilical Vein Endothelial Cells (HUVEC); assay: Cryostage freeze-thaw of endothelial cell-coated microchannels (cell attachment, membrane integrity); assay type: cell-based; conditions: with Snomax
# Description: Prior to coating with endothelial cells, microchannels were sonicated briefly (3 min in isopropanol; Branson 200, Branson Ultrasonics), and then rinsed with PBS. Channels were then coated with 1 mg/mL fibronectin (dissolved in sterile PBS, total of 10 μl) and incubated for 60 min at 37° C. After a priming step, HUVEC cells were trypsinized, counted, and re-suspended in EBM-2 complete media (˜10.0×10^6 cells per mL). Cells were subsequently introduced to the cell seeding port and incubated at 37° C. 5% CO2 for 30 min (FIG. 1A). Final constriction diameters of cellularized microchannels varied from ˜10 to 20 μm across the lengths of individual channels due to the presence of cellular nuclei along channel walls. Coated microchannels were then fed under continuous gravity flow using a pipet tip containing media and inserted into the delivery port to generate flow in the reverse direction from loading (FIG. 1A). Pipet tips (200 μl) filled with media provided an initial hydrostatic head of 2.5 cm H2O. Cells incubated at 37° C. 5% CO2 up to 3 days with daily replacement of tips with filled media before proceeding to experimentation. […] Control, unfrozen microchannels were stained with Calcein green (1:1000), Hoescht (H3570; 1:1000 v:v), and propidium iodide (4 μg/mL) for 20 min and imaged, while microchannels imaged prior to experimentation/freezing were only stained with Calcein green (1:1000). These experimental microchannels were subsequently stained after experimentation/freezing with Hoescht (H3570; 1:1000 v:v), and propidium iodide (4 μg/mL).
# Endothelial cell-coated microchannels were prepared, and placed on the silver block of a FDCS196 cryostage (Linkam Scientific Instruments Ltd, London, UK), the temperature of which was controlled by the TMS 94 temperature controller with the accuracy of ±0.1° C. Microchannels bonded to glass slides were cut into individual devices so they would fit on the silver block of the Linkam cryostage. A PixeLINK PL-A662 camera (PixeLINK, Ottawa, Canada) was used to visualize ice formation and propagation. In all cases, ice nucleation temperature was recorded and ice propagation throughout the device was confirmed by direct visual inspection (FIG. 7). Prior to freezing, endothelial cell-coated microchannels in the 3-O-methyl-D-glucopyranose (3-OMG) experimental group were incubated with EBM-2 complete media supplemented with either 50 or 100 mM 3-OMG at 37° C. to promote intracellular transport of the glucose analog. Supplementation of 3-OMG in the basal media and incubation at 37° is an effective method for intracellular delivery of 3-OMG. […] Snomax (Snomax International, Englewood, CO, USA) was used as the model ice nucleator in this study (1 mg/mL). Microchannels were perfused with PBS containing ice nucleators and/or cryoprotectant agents for 10 min prior to beginning the cooling profile. During the freezing experiment, the temperature was first cooled at 10° C./min to 4° C. After thermal stabilization, a cooling rate of 1° C./min was applied until reaching the holding temperature. […] For microchannels which contained Snomax, ice was observed <−6° C. in all cases, and channels were cooled to −6, −10, or −20° C. At the lowest holding temperature, microchannels were held for 3-5 min before a rapid rewarming at +30° C./min (FIG. 1C). After rewarming, microchannels were stained with Hoescht (nuclear) and propidium iodide (membrane integrity) dissolved in EBM-2 complete media for 20 min and imaged, in which the cell membrane integrity was used as a discriminator of live and dead cells.
# Cell attachment values were quantified by counting the total number of Hoechst positive cells (i.e. total number of cell nuclei) and dividing by the total number of channels (each device has maximum of 16 channels). Membrane integrity was quantified by counting the number of propidium iodide positive cells divided by the total number of Hoechst positive cells. […]
# [3] = test system: livers (parenchyma and endothelial cells)
# Description: In the experiments, endothelial damage occurred as a result of the loading process of high viscosity solutions. This liver was not frozen and was only subjected to the loading protocol with 10% glycerol as the main cryoprotectant.
# A stepwise loading protocol was preformed to address this issue. The liver was sampled for histology and endothelial analysis immediately after CPA loading. Thus, all livers presented were not frozen/stored and had the independent damage of the loading protocol only. Furthermore, the loading protocol was redesigned with special consideration for the impact of dramatic changes in osmolality between distinct phases of CPA loading. Thus, a step-wise loading protocol was finalized.
# The stepwise loading protocol was tested in the following way: (1) “Loading 1” refers to the 3-OMG loading phase which is essential for intracellular delivery of this CPA. 3-OMG is loaded using the subnormothermic cocktail containing a William's E media base supplemented with heparin, hydrocortisone, insulin, etc.
# First, livers were continuously perfused with either 50 or 100 mM 3-OMG at subnormothermic temperatures for 60 minutes (“Loading 1”) and were immediately sampled for histology.
# After the experiment was stopped, livers were sampled for histology.
# [4] = pH change of storage solution on freezing (phenol red); assay type: physicochemical; conditions: phenol red in storage solution
# Description: The pH can change dramatically as a function of freezing and holding temperature. Depending on the components of the storage solution, the biologic sample can be exposed to an acidic or a basic environment. These changes can be determined by adding phenol red to the storage solution. […] This pH change is relevant and can affect the preservation media. To counter these fluctuations in pH, the goal is to introduce “counter ions” which can balance the pH change.
compound,measurement,setting,value
"CO[C@H]1[C@H](O)[C@@H](CO)OC(O)[C@@H]1O (stereo partly drawn) [3-OMG, 3-O-methyl-D-glucopyranose]",cell attachment versus unfrozen controls without CPAs,[1],no statistical significant difference
same,cell attachment,"[2]; 50 mM 3-OMG, Thold −6° C.",33.2±9.1 cells/lane
same,percent PI positive cells (membrane integrity),"[2]; 50 mM 3-OMG, Thold −6° C.",7.4±3.7%
same,cell attachment,"[2]; 50 mM 3-OMG, Thold −10° C.",15.1±8.2 cells/lane
same,percent PI positive cells (membrane integrity),"[2]; 50 mM 3-OMG, Thold −10° C.",38.1±7.5%
same,cell attachment,"[2]; 100 mM 3-OMG, Thold −6° C.",31.4±6.6 cells/lane
same,percent PI positive cells (membrane integrity),"[2]; 100 mM 3-OMG, Thold −6° C.",7.3±2.8%
same,cell attachment,"[2]; 100 mM 3-OMG, Thold −10° C.",33.6±8.8 cells/lane
same,percent PI positive cells (membrane integrity),"[2]; 100 mM 3-OMG, Thold −10° C.",20.5±12.4%
OCC(O)CO [glycerol],cell death after loading that was not stepwise (FIG. 15A),[3],majority of cell death evident in endothelial cells
O=C([O-])O.[Na+] [sodium bicarbonate],pH change of solution as the result of freezing,[4],became basic
